Data on 14 compounds can be found in ChEMBL document CHEMBL1143920, “Meclonazepam analogues as potential new antihelmintic agents” (Bioorg Med Chem Lett, 2008).

The assay relates to Schistosoma mansoni. In words: Anthelmintic activity against Schistosoma mansoni. The assay is classed as functional, organism-based.

≈ marks a conversion by molar mass, not a printed value.

As for `CC1N=C(c2ccccc2Cl)c2c(/N=N/c3ccc(O)c(C(C)C)c3)cccc2NC1=O` (centres undefined), the IC50 (in general, the point on the concentration scale where inhibition reaches its midpoint) stood at 5.79 µg/mL (≈ 13 µM).
Then `Cc1cc(C)c(O)c(/N=N/c2cccc3c2C(c2ccccc2Cl)=NC(C)C(=O)N3)c1` (centres undefined), with over 10 µg/mL; and `CCc1cc(/N=N/c2cccc3c2C(c2ccccc2Cl)=NC(C)C(=O)N3)ccc1O` (centres undefined), with 5.79 µg/mL (≈ 13.4 µM).
Then `CC1N=C(c2ccccc2Cl)c2cc(N)ccc2NC1=O` (centres undefined), with over 10 µg/mL; and `CC1N=C(c2ccccc2Cl)c2c(/N=N\c3ccc(O)c4ccccc34)cccc2NC1=O` (centres undefined), with 9.1 µg/mL (≈ 20 µM); and `CC1N=C(c2ccccc2Cl)c2c(/N=N/c3c(Cl)cc(O)cc3Cl)cccc2NC1=O` (centres undefined), with 5.79 µg/mL (≈ 12.2 µM).
Then `CC1N=C(c2ccccc2Cl)c2c(/N=N/c3c(F)cc(O)cc3F)cccc2NC1=O` (centres undefined), with 3.8 µg/mL (≈ 8.62 µM); and `CC1NC(c2ccccc2Cl)c2cc([N+](=O)[O-])ccc2NC1=O` (centres undefined), with 1.3 µg/mL (≈ 3.92 µM); and `CC1NC(c2ccccc2Cl)c2cc([N+](=O)[O-])ccc2NC1=S` (centres undefined), with 4.75 µg/mL (≈ 13.7 µM).
As to `CC1N=C(c2ccccc2Cl)c2c(/N=N\c3c(O)ccc4ccccc34)cccc2NC1=O` (centres undefined), the IC50 was over 10 µg/mL.
The result for `CC1N=C(c2ccccc2Cl)c2c(/N=N/c3ccc(O)cc3)cccc2NC1=O` (centres undefined) reads over 10 µg/mL; that for `CC1N=C(c2ccccc2Cl)c2c(/N=N/c3ccc(O)cc3Br)cccc2NC1=O` (centres undefined), 10 µg/mL (≈ 20.7 µM).
The result for `CC1N=C(c2ccccc2Cl)c2cc([N+](=O)[O-])ccc2NC1=S` (centres undefined) reads 0.35 µg/mL (≈ 1.01 µM).
The result for `C[C@@H]1N=C(c2ccccc2Cl)c2cc([N+](=O)[O-])ccc2NC1=O` [MECLONAZEPAM] reads 0.37 µg/mL (≈ 1.12 µM).
